Laboratory results as given in patent publication US20250195504A1, “NALTREXAMINE DERIVATIVES BEARING 5-MEMBER HETEROCYCLIC RING SYSTEMS AND OPIOID RECEPTOR MODULATORS” (VIRGINIA COMMONWEALTH UNIVERSITY, priority 2022, published 2025).
Counter-ions that a name gives are not always drawn. Like-named read-outs stand apart in the source and are kept apart here.

Columns and labels:
[1] = biological target: Human recombinant opioid receptors (MOR) (Homo sapiens, UniProt P35372); details: read-out: MOR [35S]-GTPγS Binding EC50; MNTX, reported data; cited from earlier work
[2] = biological target: Human recombinant opioid receptors (KOR) (Homo sapiens, UniProt P41145); details: read-out: KOR [35S]-GTPγS binding EC50; MNTX, reported data; cited from earlier work
[3] = male rats, oral administration; cited from earlier work
mice = assay: carmine red dye study (GI tract motility, morphine-induced constipation)
KOR [4] = biological target: T1, KOR (Mus musculus, UniProt P33534); details: read-out: Ki (nM) KOR; reference data adopted from literature; cited from earlier work
male Swiss Webster mice [5] = details: reference compounds, literature / previous studies; cited from earlier work
MOR [6] = biological target: T2, MOR (Mus musculus, UniProt P42866); assay: MOR [35S]GTPγS functional assay (MOR-CHO membranes); assay type: biochemical; parameters: expressed in transfected cells; host or cells: CHO; details: read-out: MOR [35S]GTPγS Binding % Emax of DAMGO
Protocol: The [^35S]GTPγS functional assay was conducted to determine the efficacy of the compounds at the MOR. […] The Bradford protein assay was utilized to determine and adjust the concentration of protein required for the assay. Nonspecific binding was determined with 20 μM unlabeled GTPγS. Furthermore, 3 μM DAMGO was included in the assay as the maximally effective concentration of a full agonist for the MOR. After incubation, the bound radioactive ligand was separated from the free radioligand by filtration through a GF/B glass fiber filter paper and rinsed three times with ice-cold wash buffer (50 mM Tris-HCl, pH 7.2) using the Brandel harvester. Bound radioactivity was determined by liquid scintillation counting. All assays were determined in duplicate and repeated at least three times. Net stimulated [^35S]GTPγS binding was defined as agonist-stimulated minus basal binding in the absence of agonist. Percent of DAMGO-stimulated [^35S]GTPγS binding was defined as (net-stimulated binding by ligand/net-stimulated binding by 3 μM DAMGO)×100%.
Results were reported as mean values ±SEM.
The [^35S]-GTPγS binding assay was carried out as well to determine the functionality on the MOR of each compound. […] The [^35S]GTPγS functional assay was conducted to determine the efficacy of the compounds at the MOR, KOR and DOR. […] The Bradford protein assay was utilized to determine and adjust the concentration of protein required for the assay. Nonspecific binding was determined with 20 μM unlabeled GTPγS. Furthermore, 3 μM DAMGO/U50488H/SNC80 was included in the assay as the maximally effective concentration of a full agonist for the MOR/KOR/DOR. After incubation, the bound radioactive ligand was separated from the free radioligand by filtration through a GF/B glass fiber filter paper using a Brandel harvester. Bound radioactivity was determined by liquid scintillation counting. All assays were determined in duplicate and repeated at least three times. Net stimulated [^35S]GTPγS binding was defined as agonist-stimulated minus basal binding in the absence of agonist. Percent of DAMGO/U50488H/SNC80 stimulated [^35S]GTPγS binding was defined as (net-stimulated binding by ligand/net-stimulated binding by 3 μM DAMGO U50488H/SNC80)×100%.

DOR = biological target: T3, DOR (Homo sapiens, UniProt P41143); assay: competitive radioligand binding assay, DOR ([3H]diprenorphine, CHO cell membranes); details: read-out: Ki (nM) DOR
T3 construct: expressed in transfected cells; host or cells: CHO

morphine-pelleted mice = assay: opioid withdrawal study in morphine-pelleted mice; details: for withdrawal symptoms (wet-dog shakes, escape jumps, paw tremors): 1 mg/kg s.c., compared to 1 mg/kg NLX
male Swiss Webster mice [7] = assay: warm-water tail immersion (tail flick / tail-withdrawal) assay, antinociception; assay type: in vivo, mouse; details: Example 1 compounds; 10 mg/kg s.c., 20 min after injection
Protocol: In this assay, the duration for which mice kept their tails in the warm water was recorded.
All thirty-six compounds' antinociception were examined in tail immersion assay first to preclude any opioid receptor agonists.
Swiss Webster mice (six male mice for each group, 25-35 g, 6-8 weeks old) were used in this assay. Antinociception for all compounds was examined in male Swiss Webster mice. […] To prevent tissue damage, a 10 s maximum cutoff time was imposed. Antinociceptive response was calculated as the percentage of maximum possible effect (% MPE), where % MPE=[(test−control latency)/(10−control latency)]×100.
Warm-water tail immersion assay is a well-established assay for evaluating opioid analgesics, especially MOR agonists. […] In this context, all 24 compounds were first evaluated for their acute antinociception tail-withdrawal assay (FIG. 5A).
The tail-withdrawal test was performed using a water bath with the temperature maintained at 56±0.1° C. Baseline latency was measured before any injections. Each mouse was gently wrapped in a cloth with only the tail exposed. The distal one-third of the tail was immersed perpendicularly in water, and the mouse rapidly flicked the tail from the bath was seen as the first sign of discomfort. The duration of time the tail remained in the water bath was counted as the baseline latency. Untreated mice with baseline latency reaction times ranging from 2 to 4 seconds were used. Test latency was obtained 20 min later after each injection. A 10-second maximum cutoff latency was used to prevent any tissue damage. Antinociception was quantified as the percentage of maximal possible effect (% MPE), which was calculated as % MPE=[(test latency−control latency)/(10−control latency)]×100. The % MPE value was calculated for each mouse using 6 mice per group. Testing compounds were given 10 mg/kg (s.c.) to each mouse.

MOR [8] = biological target: T2, MOR; details: read-out: Ki (nM) MOR; Example 1 compounds (Tables 1, 2)
KOR [9] = biological target: T1, KOR; assay: competitive radioligand binding assay, KOR ([3H]diprenorphine, CHO cell membranes); parameters: expressed in transfected cells; host or cells: CHO; details: read-out: Ki (nM) KOR
[10] = Example 1 compounds (Tables 1, 2)

Molecule: C[N@+]1(CC2CC2)CC[C@]23c4c5ccc(O)c4O[C@H]2C(=O)CC[C@@]3(O)[C@H]1C5 [MNTX, methylnaltrexone]
- EC50 [1]: > 10000 nM
- EC50 [2]: > 10000 nM
- oral bioavailability [3]: < 1%
- blockage of GI motility inhibition by morphine (in words) (mice; 10 mg/kg oral gavage, morphine 5 mg/kg): no blockage was observed

Molecule: O=C(NC1CCC2(O)C3Cc4ccc(O)c5c4C2(CCN3CC2CC2)C1O5)c1ccncc1 (stereo not drawn) [NAP, 17-cyclopropylmethyl-3,14-dihydroxy-4,5α-epoxy-6β-[(4′-pyridyl)carboxamido]morphinan]
- Ki (KOR [4]): 278 ± 8 nM

Molecule: O=C(N[C@@H]1CC[C@@]2(O)[C@H]3Cc4ccc(O)c5c4C2(CCN3CC2CC2)[C@H]1O5)c1ccncc1F [NFP]
- AD50 mg/kg (95% CL) to antagonize morphine mediated antinociception (male Swiss Webster mice [5]): 2.82 mg/kg

Molecule: O=C(CCc1cccs1)N[C@H]1CC[C@@]2(O)[C@H]3Cc4ccc(O)c5c4[C@@]2(CCN3CC2CC2)[C@H]1O5 [Example 1 compound 29, 17-Cyclopropylmethyl-3,14β-dihydroxy-4,5α-epoxy-6α-[3′-(thiophen-2″yl)propanamido]morphinan hydrochloride]
- Emax (MOR [6]): 43.7 ± 1.71%

Molecule: O=C(Cc1ccsc1)N[C@H]1CC[C@@]2(O)[C@H]3Cc4ccc(O)c5c4[C@@]2(CCN3CC2CC2)[C@H]1O5 [Example 1 compound 33, 17-Cyclopropylmethyl-3,14β-dihydroxy-4,5α-epoxy-6α-(3′-thienylacetamido)morphinan hydrochloride]
- Emax (MOR [6]): 28.6 ± 1.15%

Molecule: 17-Cyclopropylmethyl-3,14β-dihydroxy-4,5α-epoxy-6α-(2′-thienylacetamido)morphinan hydrochloride [Example 1 compound 27]
- Ki (DOR; [10]): 6.92 ± 1.63 nM

Molecule: C=CCN1CC[C@]23c4c5ccc(O)c4O[C@H]2C(=O)CC[C@@]3(O)[C@H]1C5 [NLX, naloxone, reference compound]
- AD50 mg/kg (95% CL) to antagonize morphine mediated antinociception (male Swiss Webster mice [5]): 0.05 mg/kg
- withdrawal symptoms (wet-dog shakes, escape jumps, paw tremors) (morphine-pelleted mice): precipitated withdrawal symptoms

Molecule: Cl.O=C(CCc1cccs1)N[C@@H]1CC[C@@]2(O)[C@H]3Cc4ccc(O)c5c4[C@@]2(CCN3CC2CC2)[C@H]1O5 [Example 1 compound 30, 17-Cyclopropylmethyl-3,14β-dihydroxy-4,5α-epoxy-6β-[3′-(thiophen-2 yl)propanamido]morphinan hydrochloride]
- Ki (DOR): 4.87 ± 1.19 nM
- antinociceptive effect (% MPE, in words) (male Swiss Webster mice [7]): exhibited antinociception
- Ki (MOR [8]): 0.26 ± 0.01 nM
- Ki (KOR [9]): 0.23 ± 0.02 nM

Molecule: CN1CC[C@]23c4c5ccc(O)c4O[C@H]2[C@@H](O)C=C[C@H]3[C@H]1C5 [morphine]
- elongation of pellet defecation time compared to naïve group (mice; morphine 10 mg/kg s.c.): 124 min

Molecule: 17-Cyclopropylmethyl-3,14β-dihydroxy-4,5α-epoxy-6β-(2′-thienylacetamido)morphinan hydrochloride [Example 1 compound 28]
- Ki (DOR; [10]): 64.9 ± 2.38 nM

Molecule: O=C(N[C@@H]1CC[C@@]2(O)[C@H]3Cc4ccc(O)c5c4[C@@]2(CCN3CC2CC2)[C@H]1O5)c1cccs1 [Example 1 compound 26, 17-Cyclopropylmethyl-3,14β-dihydroxy-4,5α-epoxy-6β-(2′-thienylcarboxamido)morphinan hydrochloride]
- withdrawal symptoms (wet-dog shakes, escape jumps, paw tremors) (morphine-pelleted mice): significantly fewer wet-dog shakes, escape jumps, and paw tremors
- withdrawal symptoms at higher doses (morphine-pelleted mice; 5 mg/kg and above, s.c.): did not precipitate significant withdrawal symptoms at doses as high as 10 times that of NLX

Molecule: O=C(Cc1ccsc1)N[C@@H]1CC[C@@]2(O)[C@H]3Cc4ccc(O)c5c4[C@@]2(CCN3CC2CC2)[C@H]1O5 [Example 1 compound 34, 17-Cyclopropylmethyl-3,14β-dihydroxy-4,5α-epoxy-6β-(3′-thienylacetamido)morphinan hydrochloride]
- Emax (MOR [6]): 26.5 ± 3.17%
